The source of these data is paper PMC12217109, “Development of novel benzamide class I selective lysine deacetylase inhibitors as potent anticancer agents” (Journal of Enzyme Inhibition and Medicinal Chemistry, 2025).

The test system of experiment [1] is class I HDACs. The arrangement: method as in PMID 31938461. The following applies: ref [91]; cited from earlier work.
The subject of experiment [2] is MCF7 breast cancer cell line. Kind of experiment: MTT cellular viability assay, MCF7. It counts as cell-based. The following applies: Homo sapiens, 96 h. As to the method: The human A2780 ovarian (#93112519) and MCF-7 breast (#86012803) cancer cell lines were obtained from the European Cell Culture Collection (ECACC; Salisbury, UK). The human cardiac ventricular AC16 cell line (#SCC109) was obtained from Merck/Millipore (UK). The A2780 and MCF-7 cell lines were maintained in RPMI-1640 medium and the AC16 cell line was maintained in DMEM/F12 medium. Culture medium of all three cell lines was supplemented with 10% heat-inactivated foetal bovine serum (FBS) and 2 mM L-glutamine, with the cells maintained in a humidified 5% CO2 atmosphere at 37 °C. The media was changed every 72h and the cells passaged via trypsinisation (Trypsin EDTA, 0.25%) before reaching confluency.
Cytotoxicity of each compound against the cell lines was assessed using the MTT assay. Cells were seeded in three replicates into 96-well plates at a density of 2 × 10^3/well for 24h to facilitate cell attachment. Media was replaced with that containing either test compound (0–10µM) for A2780 and MCF7 cell lines, single concentration (10 µM) test compound for AC16 cell line, or drug vehicle (dimethyl sulphoxide; DMSO) and the cells incubated for a further 96 h at 37 °C in a humidified 5% CO2 atmosphere. […] Chemosensitivity was thereafter assessed using a standard 3-[4, 5-dimethylthiazolyl]-2,5-diphenyltetrazolium bromide (MTT) assay, with the optical density determined at 540 nm as an indicator of cellular viability.
(In general: Formazan colour is commonly taken as a measure of viable cells.)

Experiment [3] relates to HeLa nuclear KDACs. Set-up: method as in Beckers et al.[46]. The following applies: ref Beckers et al.[46]; read-out: HDAC Inhibition IC50; cited from earlier work.
For experiment [4], the target named is HDAC11 (Homo sapiens, UniProt Q96DB2). Set-up: method as in PMID 32608981. The following applies: read-out: HDAC11 IC50; compiled data, ref [13]; cited from earlier work.
Chain of HDAC11 (Q96DB2 whole entry): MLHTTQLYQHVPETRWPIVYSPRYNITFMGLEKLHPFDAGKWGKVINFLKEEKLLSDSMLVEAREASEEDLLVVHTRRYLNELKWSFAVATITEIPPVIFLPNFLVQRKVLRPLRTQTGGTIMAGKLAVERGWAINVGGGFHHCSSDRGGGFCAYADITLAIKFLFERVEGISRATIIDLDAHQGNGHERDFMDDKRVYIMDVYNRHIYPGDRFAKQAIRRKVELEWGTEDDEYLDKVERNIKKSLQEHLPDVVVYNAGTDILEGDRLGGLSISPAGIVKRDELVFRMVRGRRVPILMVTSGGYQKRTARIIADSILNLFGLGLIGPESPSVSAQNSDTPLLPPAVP

With `Nc1cc(F)ccc1NC(=O)c1ccc(CNC(=O)/C=C/c2cccnc2)cc1` [chidamide], in experiment [1], the 50% inhibitory concentration (IC50) was 0.11 to 0.33 µM.

Regarding `CC(=O)Nc1ccc(C(=O)Nc2ccccc2N)cc1` [Compound 2, Tacedinaline], the IC50 is 11.6 ± 1.1 µM in experiment [2], 8.5 ± 5.4 µM in experiment [3] and more than 10 µM in experiment [4].

What is called IC50 is the point on the concentration scale where inhibition reaches its midpoint.
